Laboratory results taken from PMC10225205 (Cancer Medicine, 2023).
Values joined by “and” are separate entries in the source; they are usually repeats but may differ in a detail not shown here. Equal entries are not always repeated. Where two headings read alike, the source gives them in different places.

Key:
[1] = human, in vivo
Method: (§1) Postdose samples were collected at 0.5, 1, 2, 4, 6, and 8 h on Day 1, and at 1 h on Day 14 of Cycle 1. For patients in the CD regimen, a postdose sample at 6 h on Day 14 was also collected.
(§2) Pharmacodynamic data were presented using summary statistics.

[2] = tested on: refractory advanced malignancies; conditions: cited from earlier work
pFGFR2 = conditions: read-out: In vivo IC50 for the inhibition of pFGFR2; cited from earlier work
[3] = FIGHT-101; cited from earlier work
[4] = FIGHT-102 pemigatinib plasma/urine pharmacokinetics (noncompartmental); conditions: for AUC(0-t) / AUC / Cmax / Vd/F / Tmax / half-life: human, in vivo, 13.5 mg; for AUC: AUCss,0-24h; for Vd/F: Vz/F; for Tmax: median; for half-life: t½
Method: as §1, §2

[5] = cited from earlier work
FGF23 = experiment: Plasma FGF23 concentration (Meso Scale Discovery assay); assay type: in vivo, human
Method: Plasma samples for pharmacodynamic assessments were collected predose on Days 1, 14, and 15 of Cycle 1 and any time on Day 1 (±3 days) of the subsequent cycles. […] Baseline FGF23 concentrations were assessed in plasma samples collected on Days 1 and 15 of Cycle 1 using a commercially available assay (Meso Scale Discovery). […] Inhibition of FGFR2 was assessed using an ex vivo assay that measured phosphorylated FGFR2α concentration following exposure of FGFR2‐amplified gastric cancer cells (KATOIII) to patient plasma.

clinical = conditions: human, in vivo; for AUC: AUCss,0-24h; for Vd/F: Vz/F; for Tmax: median; for half-life: t½
Method: as §1, §2

[6] = geometric mean (CV%), C1D14, 13.5 mg ID or CD, n 33
[7] = mean ± SD, C1D14, 13.5 mg ID or CD, n 33

CCN1C(=O)N(c2c(F)c(OC)cc(OC)c2F)Cc2cnc3[nH]c(CN4CCOCC4)cc3c21 [Pemigatinib]
Geometric mean fraction of dose excreted in urine [1]: 2.48% | CLss/F, geometric mean (CV%) ([1]; 9 mg): 8.99 (91.0) L/h | CLss/F, mean ± SD ([1]; 9 mg): 10.6 ± 6.31 L/h | tmax, median ([1]; 9 mg): 0.967 h | CLss/F, geometric mean (CV%) ([1]; 18 mg): 5.63 (43.8) L/h | CLss/F, mean ± SD ([1]; 18 mg): 5.96 ± 2.50 L/h | tmax, median ([1]; 18 mg): 0.833 h | Median progression-free survival ([2]; FGFR fusions or rearrangements, 95% CI 2.8–10.0): 5.7 months | Objective response rate ([2]; FGFR fusions or rearrangements, 95% CI 8.7–49.1): 25.0% | Partial responses ([2]; across tumor types): 12 n | Objective response rate ([2]; all patients, 95% CI 4.9–15.8): 9.4% | Median duration of response ([2]; all responders, 95% CI 3.3–14.5): 7.3 months | IC50 (pFGFR2): 22.6 nM | Most common (>30%) overall TEAEs [3]: hyperphosphatemia, fatigue, dry mouth, stomatitis, diarrhea, and alopecia | Recommended dosage for further studies [3]: 13.5 mg QD | tmax, median ([4]; C1D1, 13.5 mg ID or CD, n 36): 1 h | CLss/F, geometric mean (CV%) ([4]; C1D14, 13.5 mg ID or CD, n 33): 10.2 (55.5) L/h and 10.2 L/h | CLss/F, mean ± SD ([4]; C1D14, 13.5 mg ID or CD, n 33): 11.6 ± 6.52 L/h | Cmin,ss, geometric mean (CV%) ([4]; C1D14, 13.5 mg ID or CD, n 33): 56.0 (61.0) nM | Cmin,ss, mean ± SD ([4]; C1D14, 13.5 mg ID or CD, n 33): 66.2 ± 45.2 nM | AUC(0-t) ([4]; AUC0-24h, geometric mean (CV%), C1D1, 13.5 mg ID or CD, n 36): 1.88 µM·h | AUC(0-t) ([4]; AUC0-24h, mean ± SD, C1D1, 13.5 mg ID or CD, n 36): 2.02 ± 0.762 µM·h | AUC(0-t) ([4]; AUClast, geometric mean (CV%), C1D1, 13.5 mg ID or CD, n 36): 1.85 µM·h | AUC(0-t) ([4]; AUClast, mean ± SD, C1D1, 13.5 mg ID or CD, n 36): 1.99 ± 0.748 µM·h | AUC [4, 6]: 2.72 µM·h | AUC [4, 7]: 3.09 ± 1.68 µM·h | Cmax ([4]; Cmax, geometric mean (CV%), C1D1, 13.5 mg ID or CD, n 36): 216 nM | Cmax ([4]; Cmax, mean ± SD, C1D1, 13.5 mg ID or CD, n 36): 260 ± 136 nM | Cmax ([4]; Cmax,ss, geometric mean (CV%), C1D14, 13.5 mg ID or CD, n 33): 195 nM | Cmax ([4]; Cmax,ss, mean ± SD, C1D14, 13.5 mg ID or CD, n 33): 238 ± 139 nM | Vd/F [4, 6]: 201 L | Vd/F [4, 7]: 258 ± 216 L | Tmax ([4]; C1D1, 13.5 mg ID or CD, n 36): 1.43 h | Tmax ([4]; C1D14, 13.5 mg ID or CD, n 33): 1.02 h | half-life [4, 6]: 13.6 h | half-life [4, 7]: 15.4 ± 9.03 h | AUC0-24 geometric mean ([5]; 13.5 mg QD steady state, CV% 54.1): 2.62 µM·h | Geometric mean half-life ([5]; 13.5 mg QD, CV% 51.6): 15.4 h | Cmax ([5]; 13.5 mg QD, CV% 56.4, read-out: Steady-state Cmax geometric mean): 236 nM | Terminal half-life ([5]; dose-independent): 15 h | Time to reach Cmax ([5]; doses of ≥6 mg): 1 to 2 h | Mean increase of plasma FGF23 (FGF23; 9 mg): 2.6 fold | Mean increase of plasma FGF23 (FGF23; 13.5 mg): 2.9 fold | Rise of median FGF23 concentration from baseline (FGF23; 13.5 mg QD, first 2 weeks of treatment): slightly more than twofold | Mean increase of plasma FGF23 (FGF23; 18 mg): 3.9 fold | Patients with elevated FGF23 concentration at Day 15 of Cycle 1 (FGF23; 37/41 patients, all doses): 90% | Mean FGF23 concentration (FGF23; C1D15, all doses, baseline 198 ± 29): 464 ± 49 pg/mL | AUC(0-t) (clinical; 9 mg, AUC0-24h, geometric mean (CV%)): 1.12 µM·h | AUC(0-t) (clinical; 9 mg, AUC0-24h, mean ± SD): 1.13 ± 0.133 µM·h | AUC(0-t) (clinical; 9 mg, AUClast, geometric mean (CV%)): 1.12 µM·h | AUC(0-t) (clinical; 9 mg, AUClast, mean ± SD): 1.12 ± 0.125 µM·h | AUC (clinical; 9 mg, geometric mean (CV%)): 2.05 µM·h | AUC (clinical; 9 mg, mean ± SD): 2.54 ± 2.1 µM·h | Cmax (clinical; 9 mg, Cmax, geometric mean (CV%)): 110 nM | Cmax (clinical; 9 mg, Cmax, mean ± SD): 114 ± 35.3 nM | Cmax (clinical; 9 mg, Cmax,ss, geometric mean (CV%)): 127 nM | Cmax (clinical; 9 mg, Cmax,ss, mean ± SD): 155 ± 117 nM | Vd/F (clinical; 9 mg, geometric mean (CV%)): 209 L | Vd/F (clinical; 9 mg, mean ± SD): 224 ± 104 L | Tmax (clinical; 9 mg): 1.9 h | half-life (clinical; 9 mg, geometric mean (CV%)): 16.1 h | half-life (clinical; 9 mg, mean ± SD): 17.1 ± 7.44 h | AUC(0-t) (clinical; 18 mg, AUC0-24h, geometric mean (CV%)): 3.31 µM·h | AUC(0-t) (clinical; 18 mg, AUC0-24h, mean ± SD): 3.45 ± 1.02 µM·h | AUC(0-t) (clinical; 18 mg, AUClast, geometric mean (CV%)): 3.24 µM·h | AUC(0-t) (clinical; 18 mg, AUClast, mean ± SD): 3.38 ± 1.01 µM·h | AUC (clinical; 18 mg, geometric mean (CV%)): 6.56 µM·h | AUC (clinical; 18 mg, mean ± SD): 6.95 ± 2.78 µM·h | Cmax (clinical; 18 mg, Cmax, geometric mean (CV%)): 344 nM | Cmax (clinical; 18 mg, Cmax, mean ± SD): 431 ± 272 nM | Cmax (clinical; 18 mg, Cmax,ss, geometric mean (CV%)): 385 nM | Cmax (clinical; 18 mg, Cmax,ss, mean ± SD): 450 ± 285 nM | Vd/F (clinical; 18 mg, geometric mean (CV%)): 154 L | Vd/F (clinical; 18 mg, mean ± SD): 205 ± 188 L | Tmax (clinical; 18 mg): 1.02 h | half-life (clinical; 18 mg, geometric mean (CV%)): 18.9 h | half-life (clinical; 18 mg, mean ± SD): 20.7 ± 11.2 h
